Assay results reported in patent EP0303387B1, “Kynurenic acid derivatives useful in the treatment of neurodegenerative disorders” (MERCK SHARP & DOHME LTD., priority 1987, dated 1989).
Counter-ions that a name gives are not always drawn.

tested on: excitatory amino acid receptors; assay: not given; settings: statement in words; R.H. Evans et al., Br. J. Pharmac., 1987, 91, 531; cited from earlier work

Compound	antagonist of excitatory amino acid receptors
O=C(O)c1cc(=O)c2ccccc2[nH]1 [Kynurenic acid, 4-oxo-1,4-dihydroquinoline-2-carboxylic acid]	weak and non-selective antagonist

biological target: T1, NMDA receptor (Rattus norvegicus, UniProt P35439); assay: antagonism of responses to NMDA, rat cortical slice preparation; assay type: cell-based; settings: not given
T1 construct: from tissue; host or cells: rat cortical slice
Protocol: The effects of compounds of the invention on responses to the agonists NMDA, kainate and quisqualate were assessed using the rat cortical slice preparation as described by Wong et al., Proc. Natl. Acad. Sci. USA, 1986, 83, 7104. The apparent equilibrium constants (Kb) were calculated from the righthand shift in the agonist concentration-response curve.

Compound	Kb [µM]
O=C(O)c1cc(O)c2ccc(Br)cc2n1 [7-bromo-4-oxo-1,4-dihydroquinoline-2-carboxylic acid]	< 100

same assay, conditions: rat cortical slice; apparent equilibrium constant (Kb) calculated from righthand shift in the agonist concentration-response curve; read-out: NMDA antagonist activity at concentrations (Kb)

Kb [µM]	Compound
< 100	CCc1cc(Br)c2c(O)cc(C(=O)O)nc2c1 [5-Bromo-7-ethyl-4-oxo-1,4-dihydroquinoline-2-carboxylic acid]
< 100	Cc1cc(C)c2c(O)cc(C(=O)O)nc2c1 [5,7-Dimethyl-4-oxo-1,4-dihydroquinoline-2-carboxylic acid]
< 100	Cc1cc(Br)cc2nc(C(=O)O)cc(O)c12 [7-Bromo-5-methyl-4-oxo-1,4-dihydroquinoline-2-carboxylic acid]
< 100	O=C(O)c1cc(O)c2c(Cl)cc(Cl)cc2n1 [5,7-dichloro-4-oxo-1,4-dihydroquinoline-2-carboxylic acid]
< 100	CCc1cc(Br)cc2nc(C(=O)O)cc(O)c12 [7-Bromo-5-ethyl-4-oxo-1,4-dihydroquinoline-2-carboxylic acid]
< 100	Cc1cccc2nc(C(=O)O)cc(O)c12 [5-methyl-4-oxo-1,4-dihydroquinoline-2-carboxylic acid]
< 100	O=C(O)c1cc(O)c2c(I)cc(Cl)cc2n1 [7-Chloro-5-iodo-4-oxo-1,4-dihydroquinoline-2-carboxylic acid]
< 100	Cc1cc(Br)c2c(O)cc(C(=O)O)nc2c1 [5-Bromo-7-methyl-4-oxo-1,4-dihydroquinoline-2-carboxylic acid]
< 100	Cc1cc(I)c2c(O)cc(C(=O)O)nc2c1 [5-Iodo-7-methyl-4-oxo-1,4-dihydroquinoline-2-carboxylic acid]
< 100	O=C(O)c1cc(O)c2c(Br)cc(Br)cc2n1 [5,7-dibromo-4-oxo-1,4-dihydroquinoline-2-carboxylic acid]
< 100	Cc1cc(I)cc2nc(C(=O)O)cc(O)c12 [7-Iodo-5-methyl-4-oxo-1,4-dihydroquinoline-2-carboxylic acid]

The next lines start with the molecule.

Compound	Kb [µM]
O=C(O)c1cc(=O)c2c(F)cccc2[nH]1 [5-Fluoro-4-oxo-1,4-dihydroquinoline-2-carboxylic acid]	< 100
O=C(O)c1cc(O)c2ccc(I)cc2n1 [7-iodo-4-oxo-1,4-dihydroquinoline-2-carboxylic acid]	< 100
O=C(O)c1cc(O)c2c(Cl)cc(I)cc2n1 [5-Chloro-7-iodo-4-oxo-1,4-dihydroquinoline-2-carboxylic acid]	< 100
CCc1cc(Cl)c2c(O)cc(C(=O)O)nc2c1 [5-Chloro-7-ethyl-4-oxo-1,4-dihydroquinoline-2-carboxylic acid]	< 100
Cc1ccc2c(O)cc(C(=O)O)nc2c1 [7-methyl-4-oxo-1,4-dihydroquinoline-2-carboxylic acid]	< 100
O=C(O)c1cc(O)c2c(I)cccc2n1 [5-Iodo-4-oxo-1,4-dihydroquinoline-2-carboxylic acid]	< 100
O=C(O)c1cc(O)c2ccc(F)cc2n1 [7-fluoro-4-oxo-1,4-dihydroquinoline-2-carboxylic acid]	< 100
O=C(O)c1cc(=O)c2ccc([N+](=O)[O-])cc2[nH]1 [7-nitro-4-oxo-1,4-dihydroquinoline-2-carboxylic acid]	< 100
CCc1cccc2nc(C(=O)O)cc(O)c12 [5-Ethyl-4-oxo-1,4-dihydroquinoline-2-carboxylic acid]	< 100
O=C(O)c1cc(O)c2c(Cl)cccc2n1 [5-chloro-4-oxo-1,4-dihydroquinoline-2-carboxylic acid]	< 100
O=C(NOCc1ccccc1)c1cc(=O)c2c(Cl)cc(Cl)cc2[nH]1 [5,7-Dichloro-4-oxo-1,4-dihydroquinoline-2-(O-benzyl)hydroxamic acid]	< 100
O=C(NO)c1cc(=O)c2c(Cl)cc(Cl)cc2[nH]1 [5,7-Dichloro-4-oxo-1,4-dihydroquinoline-2-hydroxamic acid potassium salt.]	< 100
O=C(O)c1cc(=O)c2cc(F)ccc2[nH]1 [6-fluoro-4-oxo-1,4-dihydroquinoline-2-carboxylic acid]	< 100
O=C(O)c1cc(=O)c2c(Br)cccc2[nH]1 [5-bromo-4-oxo-1,4-dihydroquinoline-2-carboxylic acid]	< 100
O=C(O)c1cc(O)c2ccc(Cl)cc2n1 [7-chloro-4-oxo-1,4-dihydroquinoline-2-carboxylic acid]	< 100
O=C(O)c1cc(=O)c2c(C(F)(F)F)cccc2[nH]1 [5-Trifluoromethyl-4-oxo-1,4-dihydroquinoline-2-carboxylic acid]	< 100
CCc1cc(Cl)cc2nc(C(=O)O)cc(O)c12 [7-Chloro-5-ethyl-4-oxo-1,4-dihydroquinoline-2-carboxylic acid]	< 100
